Laboratory results published in patent US11259516B2, “Method and apparatus for capsular delivery to plants” (priority 2017, dated 2022).

Key:
[1] = system: Erythrina sykesii (Coral tree); parameters: key: X indicates that the given herbicide is suitable for controlling the given weed; conditions: cited from earlier work
[2] = system: Celtis sinensis (Chinese celtis); parameters: key: X indicates that the given herbicide is suitable for controlling the given weed; conditions: cited from earlier work
[3] = system: Eucalyptus dunnii (Dunn's White Gum); assay: Case 3: dose rate effect of Di-Bak G on Eucalyptus dunnii, field trial; type: in vivo; conditions: for mortality: single capsule per tree
Protocol: Generally, one capsule was inserted per 10 cm stem circumference.
Tree health was assessed on a 0-4 scale, 0 being dead and 4 being healthy. Observations were made for evidence of ‘flashback’ in nearby untreated trees.
In this trial, one, two or three capsules of glyphosate were inserted into Eucalyptus dunnii trees irrespective of their circumference. The trial was established on Brooklyn station, Upper Tooloom, near Urbenville on 26 May 2017. GPS co-ordinates were S28° 32.488′ E152° 24.778′. The trees were arranged in a similar manner, and similar in age and size, to the E. saligna trees described in Case 2. Desirable trees were marked and the other trees were treated.
This trial consisted of one replicate of 15 trees for each treatment. […] Tree health was assessed at 4 months (25 Aug. 2017) and 7 months (20 Dec. 2017). […] At the 4 month assessment, samples were collected for observation of dissolution of capsule and herbicide. Rainfall data for the closest recording station (Urbenville) was taken from the Bureau of Meteorology (BOM) internet site. No recent temperature data records were available for this site.

Salix species (Willows) = system: Salix species (Willows); parameters: key: X indicates that the given herbicide is suitable for controlling the given weed; conditions: cited from earlier work
[4] = system: Senegalia catechu (Cutch tree); parameters: key: X indicates that the given herbicide is suitable for controlling the given weed; conditions: cited from earlier work
[5] = system: Crataegus sinaica (Azarola); parameters: key: X indicates that the given herbicide is suitable for controlling the given weed; conditions: cited from earlier work
Lantana camara (Lantana) = system: Lantana camara (Lantana); parameters: key: X indicates that the given herbicide is suitable for controlling the given weed; conditions: cited from earlier work
[6] = system: Schefflera actinophyla (Umbrella tree); parameters: key: X indicates that the given herbicide is suitable for controlling the given weed; conditions: cited from earlier work
[7] = system: Leptospermum spp. (Tea trees); parameters: key: X indicates that the given herbicide is suitable for controlling the given weed; conditions: cited from earlier work
[8] = system: Pittosporum undulatum (Sweet pittosporum); parameters: key: X indicates that the given herbicide is suitable for controlling the given weed; conditions: cited from earlier work
[9] = system: Gleditsia triacanthos (Honey locust); parameters: key: X indicates that the given herbicide is suitable for controlling the given weed; conditions: cited from earlier work
[10] = system: western white gum (Eucalyptus argophloia); assay: Example 3: glyphosate and glyphosate+imazapyr capsules, thinning trial in western white gum plantation
Protocol: The trial was established at the HQP plantation near Jandowae on 6 Feb. 2018. The trees were planted in rows 4 m apart at 1.5 m spacing. Trees were 6-10 m tall. Trees to be maintained were marked and the other trees were treated.
Four treatments were used, with capsules as follows:
Capsules and applicator used were as described in Example 2.
Herbicide capsules were applied to approx. 10 trees for each of the treatments. The number of capsules applied to each tree was independent of tree circumference which was measured at chest height. The tree circumferences range was from 12 to 25 centimetres. At 4 weeks, a small sample of trees were cut down with a chainsaw and cross-sections of stems containing the sites of insertion of the herbicide capsules removed. These stem pieces were returned to the laboratory and split open longitudinally through the insertion point. Tree health was assessed at 11 weeks (24 Apr. 2018) on a 0-4 scale with 0 being dead and 4 being healthy. Observations were made for evidence of flashback in untreated trees.

[11] = system: Inga edulis (Icecream tree); parameters: key: X indicates that the given herbicide is suitable for controlling the given weed; conditions: cited from earlier work
[12] = system: Olea europea sbsp africana (African olive); parameters: key: X indicates that the given herbicide is suitable for controlling the given weed; conditions: cited from earlier work
[13] = system: Ricinus communis (Castor oil plant); parameters: key: X indicates that the given herbicide is suitable for controlling the given weed; conditions: in vivo; cited from earlier work
[14] = system: Erythrina crista-galli (Cockspur coral tree); parameters: key: X indicates that the given herbicide is suitable for controlling the given weed; conditions: cited from earlier work
[15] = system: Psidium cattleianum (Cherry guava); parameters: key: X indicates that the given herbicide is suitable for controlling the given weed; conditions: cited from earlier work
[16] = system: Toxicodendron succedaneum (Rhus); parameters: key: X indicates that the given herbicide is suitable for controlling the given weed; conditions: cited from earlier work
Phoenix spp (Palms) = system: Phoenix spp (Palms); parameters: key: X indicates that the given herbicide is suitable for controlling the given weed; conditions: cited from earlier work
[17] = system: Lycium ferocissium (African boxthom); parameters: key: X indicates that the given herbicide is suitable for controlling the given weed; conditions: cited from earlier work
[18] = system: Solanum mauritianum (Wild tobacco tree); parameters: key: X indicates that the given herbicide is suitable for controlling the given weed; conditions: cited from earlier work
Mimosa pigra (Mimosa) = system: Mimosa pigra (Mimosa); parameters: key: X indicates that the given herbicide is suitable for controlling the given weed; conditions: cited from earlier work
[19] = system: Cascabela thevetia (Yellow oleander); parameters: key: X indicates that the given herbicide is suitable for controlling the given weed; conditions: cited from earlier work
[20] = system: Ligustrum sinense (Chinese privet); parameters: key: X indicates that the given herbicide is suitable for controlling the given weed; conditions: cited from earlier work

## O=C(O)CNCP(=O)(O)O [Glyphosate]
[1]
  suitability of herbicide for control of weed: X
[2]
  suitability of herbicide for control of weed: X
[3]; 2 capsules per tree, at 4 months
  trees dead: ~90%
[3]; 2 capsules per tree, by 7 months
  treated trees killed: all had been killed
[3]; 3 capsules per tree, by 4 months
  treated trees killed: killed all treated trees
[3]; at 4 months
  mortality: ~70%
[3]; by 7 months
  mortality: ~80%
Salix species (Willows)
  suitability of herbicide for control of weed: X
[4]
  suitability of herbicide for control of weed: X
[5]
  suitability of herbicide for control of weed: X
Lantana camara (Lantana)
  suitability of herbicide for control of weed: X
[6]
  suitability of herbicide for control of weed: X
[7]
  suitability of herbicide for control of weed: X
[8]
  suitability of herbicide for control of weed: X
[9]
  suitability of herbicide for control of weed: X
[10]; 11 week assessment
  flashback in the trees marked for retention: no flashback was observed
[10]; 11 weeks post treatment, 1 or 2 capsules per tree
  trees died (health rating 0-4 scale, 0 dead): majority of trees
[11]
  suitability of herbicide for control of weed: X
[12]
  suitability of herbicide for control of weed: X
[13]
  suitability of herbicide for control of weed: X
[14]
  suitability of herbicide for control of weed: X
[15]
  suitability of herbicide for control of weed: X
[16]
  suitability of herbicide for control of weed: X
Phoenix spp (Palms)
  suitability of herbicide for control of weed: X
[17]
  suitability of herbicide for control of weed: X
[18]
  suitability of herbicide for control of weed: X
Mimosa pigra (Mimosa)
  suitability of herbicide for control of weed: X
[19]
  suitability of herbicide for control of weed: X
[20]
  suitability of herbicide for control of weed: X
